Nine compounds from ChEMBL document CHEMBL1201862, “PubChem BioAssay data set” (2004) can be followed below.

A word on the IC50: it is the concentration that inhibits the measured activity by half. In general, AC50 refers to the concentration at which the activity in the assay is half-maximal. As a reminder, the EC50 is the concentration at which the effect is half-maximal. One may read the Ki as the dissociation constant of the complex between target and ligand, obtained from inhibition or displacement.

The target in one assay is Melanocortin receptor 4 (Homo sapiens, UniProt P32245). In words: MC4R antagonist potency on cAMP, dose response, cell-based, TR-FRET, biased antagonists (AID 602298).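 Further: antagonist potency against agonist-stimulated cAMP production.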 It is filed as functional. In general terms: TR-FRET usually uses a lanthanide donor and a delayed reading to cut background.
Sequence of Melanocortin receptor 4 (P32245 whole entry): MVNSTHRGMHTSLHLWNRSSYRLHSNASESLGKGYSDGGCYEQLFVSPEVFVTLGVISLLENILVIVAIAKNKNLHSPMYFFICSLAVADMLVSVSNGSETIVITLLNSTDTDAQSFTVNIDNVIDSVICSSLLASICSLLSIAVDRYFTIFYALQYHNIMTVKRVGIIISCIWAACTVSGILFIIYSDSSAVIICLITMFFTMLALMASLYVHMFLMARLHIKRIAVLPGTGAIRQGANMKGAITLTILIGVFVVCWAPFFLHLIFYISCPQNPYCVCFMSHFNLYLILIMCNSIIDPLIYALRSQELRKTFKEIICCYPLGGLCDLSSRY
A further assay has as its target T1, Coagulation factor XII (Homo sapiens, UniProt P00748).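 Further: activated factor XIIa alpha cleaving a fluorogenic AMC peptide substrate; inhibitor potency from loss of enzyme activity.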
T1 sequence (P00748 whole entry): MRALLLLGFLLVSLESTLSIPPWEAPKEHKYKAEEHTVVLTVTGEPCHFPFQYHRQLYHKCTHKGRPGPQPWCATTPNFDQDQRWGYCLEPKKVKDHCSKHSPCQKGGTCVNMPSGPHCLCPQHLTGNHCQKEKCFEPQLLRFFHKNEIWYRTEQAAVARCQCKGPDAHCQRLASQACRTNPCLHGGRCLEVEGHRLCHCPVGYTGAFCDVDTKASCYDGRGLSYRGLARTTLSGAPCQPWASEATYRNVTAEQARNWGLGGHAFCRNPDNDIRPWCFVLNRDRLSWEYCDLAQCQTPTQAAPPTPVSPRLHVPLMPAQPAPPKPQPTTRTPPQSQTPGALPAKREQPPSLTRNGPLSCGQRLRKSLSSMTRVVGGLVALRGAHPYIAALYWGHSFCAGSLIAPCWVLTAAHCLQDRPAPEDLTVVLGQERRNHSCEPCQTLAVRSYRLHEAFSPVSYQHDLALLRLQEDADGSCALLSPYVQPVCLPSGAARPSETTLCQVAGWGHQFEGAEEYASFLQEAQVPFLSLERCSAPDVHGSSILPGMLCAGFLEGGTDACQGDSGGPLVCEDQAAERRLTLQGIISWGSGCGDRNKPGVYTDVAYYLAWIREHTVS
It is filed as functional.

Assay [1] can be described thus: nonselective inhibitors of cellular cAMP signaling, dose response, counter-screen for MC4R biased antagonist project, cell-based, TR-FRET cAMP detection (AID 602305).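 Further: U2OS cells stimulated with forskolin near its EC80 as the cAMP inducer; potency is for inhibition of forskolin-stimulated cAMP signaling.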 The assay is classed as functional. (In general: A counterscreen serves to expose hits that act by an unwanted route or on another target.)
The target of assay [2] is Ras and Rab interactor 1/Tyrosine-protein kinase ABL1 (Homo sapiens, UniProt P00519+Q13671). It is filed as functional.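 Further: biochemical TR-FRET dose-response test measuring inhibition of binding between Rin1 and Abl proteins.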
Assay [3] is described as follows: inhibitors of PGC1a acetylation in cells, dose response, cell-based, cherry-picked samples (AID 720514).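 Further: potency may reflect raised or lowered acetylation signal.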 The assay is classed as functional.
Assay [4] has as its target Protein disulfide-isomerase (Homo sapiens, UniProt P07237). In words: PDI inhibitors, insulin aggregation turbidity, dose response, biochemical, absorbance, cherry-picked samples (AID 602350). It is filed as functional.
Assay [5] has as its target T2, Orexin/Hypocretin receptor type 1 (Homo sapiens, UniProt O43613).
T2 sequence (O43613 whole entry): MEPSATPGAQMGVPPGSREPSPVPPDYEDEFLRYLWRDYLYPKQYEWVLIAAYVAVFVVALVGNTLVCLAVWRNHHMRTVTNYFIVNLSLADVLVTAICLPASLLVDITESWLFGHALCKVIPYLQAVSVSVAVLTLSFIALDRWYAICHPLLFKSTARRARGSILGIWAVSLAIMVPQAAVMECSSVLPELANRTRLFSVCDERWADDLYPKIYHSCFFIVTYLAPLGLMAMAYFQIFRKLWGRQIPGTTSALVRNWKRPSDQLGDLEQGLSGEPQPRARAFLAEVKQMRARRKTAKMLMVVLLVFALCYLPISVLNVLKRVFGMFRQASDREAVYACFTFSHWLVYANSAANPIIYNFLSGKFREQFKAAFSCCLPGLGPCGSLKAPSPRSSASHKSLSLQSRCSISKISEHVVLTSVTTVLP
Briefly: Homogeneous Time Resolved Fluorescence (HTRF)-based cell-based high throughput dose response assay for antagonists of the orexin 1 receptor (OX1R; HCRTR1). [Related pubchem assays (depositor defined):AID434989, AID435008, AID463079, AID485270, AID492963, AID492964, AID492965, AID493232, AID504717, AID504718]. The assay is classed as functional.

Assay [6] has as its system BJ. Briefly: cytotoxicity toward BJ-TERT fibroblasts, dose response, cell-based, RAS-independent, luminescence (AID 1933). The assay is classed as functional. The note with it: Homo sapiens.
The next assay concerns CHO-K1. In words: Counterscreen for antagonists of the orexin 1 receptor (OX1R; HCRTR1): Homogeneous time resolved fluorescence (HTRF)-based cell-based dose response assay to identify antagonists of the parental CHO-K1 cell line. [Related pubchem assays (depositor defined):AID434989, AID435008, AID463079, AID485270, AID492963, AID492964, AID492965, AID493232, AID504699, AID504701]. The assay is classed as functional. The note with it: Cricetulus griseus.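 Further: potency for inhibition of ATP-stimulated IP1 production as antagonists.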

In assay [7] the target is T3, Orexin receptor type 2 (Homo sapiens, UniProt O43614).
T3 sequence (O43614 whole entry): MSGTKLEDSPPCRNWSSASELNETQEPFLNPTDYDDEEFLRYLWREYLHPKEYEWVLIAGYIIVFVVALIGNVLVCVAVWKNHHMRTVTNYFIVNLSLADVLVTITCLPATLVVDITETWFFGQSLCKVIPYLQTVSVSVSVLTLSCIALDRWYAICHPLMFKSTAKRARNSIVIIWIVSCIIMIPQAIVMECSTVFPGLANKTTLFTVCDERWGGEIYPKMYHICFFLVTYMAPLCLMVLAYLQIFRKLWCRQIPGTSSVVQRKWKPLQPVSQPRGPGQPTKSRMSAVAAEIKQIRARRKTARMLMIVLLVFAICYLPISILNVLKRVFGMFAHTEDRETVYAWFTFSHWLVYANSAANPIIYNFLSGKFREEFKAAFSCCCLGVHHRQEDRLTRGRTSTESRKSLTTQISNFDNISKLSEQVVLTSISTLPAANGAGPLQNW
Briefly: Counterscreen assay for antagonists of the orexin 1 receptor (OX1R; HCRTR1): Fluorescence-based cell-based dose response assay for antagonists of the orexin 2 receptor (OX2R; HCRTR2), run by assay provider. It is filed as functional.

In assay [8] the target is T3, Orexin receptor type 2. In words: Counterscreen assay for antagonists of the orexin 1 receptor (OX1R; HCRTR1): Homogeneous Time Resolved Fluorescence (HTRF)-based cell-based dose response assay for antagonists of the orexin 2 receptor (OX2R; HCRTR2), run by assay provider. It is filed as functional.
For a further assay, the system named is CHO. Briefly: cytotoxicity in TLR9-MyD88 CHO cells, dose response, cytotoxicity control for TLR9-MyD88 binding inhibitor project, cell-based, luminescence (AID 588339).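 Further: CHO cells stably coexpressing TLR9 and MyD88 fusions from primary screen; compound exposure lasted 48 hours before viability readout.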 It is filed as functional, hamster. The note with it: Cricetulus griseus.
A short description of assay [9]: cytotoxicity toward DRD oncogenic fibroblasts, dose response, cell-based, non-viral oncogenic, luminescence (AID 1934). It is filed as functional. As to conditions: Homo sapiens.
Assay [10] has as its target T2, Orexin/Hypocretin receptor type 1. Briefly: Fluorescence-based cell-based high throughput dose response assay for antagonists of the orexin 1 receptor (OX1R; HCRTR1). [Related pubchem assays (depositor defined):AID434989, AID435008, AID463079, AID485270, AID492963, AID492964, AID492965, AID493232, AID504717, AID504718]. It is filed as functional.
In a further assay the target is Beta Lactamase (Pseudomonas aeruginosa, UniProt Q932Y6). Briefly: beta-lactamase reporter inhibitor potency, dose response, artefact control for TLR9-MyD88 binding inhibitor project, BLA reporter cells, FRET fluorescence (AID 588341).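 Further: cell based assay in CHO-K1 cells stably expressing beta-lactamase.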 The assay is classed as cell-based.
Sequence of Beta Lactamase (Q932Y6 whole entry): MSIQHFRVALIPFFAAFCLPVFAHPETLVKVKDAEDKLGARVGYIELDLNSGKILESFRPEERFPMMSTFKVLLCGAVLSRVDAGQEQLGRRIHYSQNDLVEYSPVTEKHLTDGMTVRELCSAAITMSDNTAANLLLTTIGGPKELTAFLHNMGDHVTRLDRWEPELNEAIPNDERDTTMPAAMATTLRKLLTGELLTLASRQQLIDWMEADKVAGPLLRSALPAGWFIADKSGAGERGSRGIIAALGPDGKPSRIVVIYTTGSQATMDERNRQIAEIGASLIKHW
Assay [11] can be described thus: Counterscreen for antagonists of the orexin 1 receptor (OX1R; HCRTR1): Fluorescence-based cell-based high throughput dose response assay to identify antagonists of the parental CHO cell line. [Related pubchem assays (depositor defined):AID434989, AID435008, AID463079, AID485270, AID492963, AID492964, AID492965, AID493232, AID504699, AID504701]. It is filed as functional.

The test system of assay [12] is BJ. In words: cells. The assay is classed as functional, cell-based. The note with it: Homo sapiens.
Assay [13] in a line: CAL PDZ domain peptide-binding inhibitors, dose response, biochemical, fluorescence polarization, untagged CAL PDZ, cherry-pick, set 2 (AID 602254). The assay is classed as functional. A general note: Polarisation of emitted light reports the rotation of a fluorescent probe.
Assay [14] has as its target T4, High affinity choline transporter 1 (Homo sapiens, UniProt Q9GZV3).
T4 sequence (Q9GZV3 whole entry): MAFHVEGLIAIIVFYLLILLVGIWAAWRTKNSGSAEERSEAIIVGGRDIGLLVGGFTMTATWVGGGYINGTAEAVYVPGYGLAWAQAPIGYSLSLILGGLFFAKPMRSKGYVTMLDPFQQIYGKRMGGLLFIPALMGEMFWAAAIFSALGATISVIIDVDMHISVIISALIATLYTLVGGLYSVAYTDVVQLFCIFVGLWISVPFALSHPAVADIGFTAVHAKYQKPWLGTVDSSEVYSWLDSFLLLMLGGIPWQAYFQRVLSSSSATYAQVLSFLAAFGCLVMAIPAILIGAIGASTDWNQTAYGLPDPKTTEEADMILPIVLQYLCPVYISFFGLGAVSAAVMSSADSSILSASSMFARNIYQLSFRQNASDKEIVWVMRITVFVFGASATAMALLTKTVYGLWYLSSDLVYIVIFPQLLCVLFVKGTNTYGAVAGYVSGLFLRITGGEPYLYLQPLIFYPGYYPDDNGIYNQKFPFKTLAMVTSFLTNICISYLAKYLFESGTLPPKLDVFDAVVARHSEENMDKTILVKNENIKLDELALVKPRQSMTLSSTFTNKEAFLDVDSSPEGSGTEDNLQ
In words: CHT inhibitors, dose response, cell-based, 10-point CRC, membrane potential dye (AID 588401).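 Further: membrane potential dye fluorescence of choline-evoked depolarization via CHT.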 The assay is classed as functional.

For assay [15], the target named is T4, High affinity choline transporter 1. Briefly: CHT inhibitors, dose response, cell-based, 5-point CRC, membrane potential dye (AID 504840). It is filed as functional.
Another assay has as its target Aurora kinase A (Homo sapiens, UniProt O14965). It is filed as functional.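 Further: value from the Navigating the Kinome kinase panel profiling, panel entry STK6.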
The target in a further assay is Aurora kinase B (Homo sapiens, UniProt Q96GD4). It is filed as functional.
Sequence of Aurora kinase B (Q96GD4 whole entry): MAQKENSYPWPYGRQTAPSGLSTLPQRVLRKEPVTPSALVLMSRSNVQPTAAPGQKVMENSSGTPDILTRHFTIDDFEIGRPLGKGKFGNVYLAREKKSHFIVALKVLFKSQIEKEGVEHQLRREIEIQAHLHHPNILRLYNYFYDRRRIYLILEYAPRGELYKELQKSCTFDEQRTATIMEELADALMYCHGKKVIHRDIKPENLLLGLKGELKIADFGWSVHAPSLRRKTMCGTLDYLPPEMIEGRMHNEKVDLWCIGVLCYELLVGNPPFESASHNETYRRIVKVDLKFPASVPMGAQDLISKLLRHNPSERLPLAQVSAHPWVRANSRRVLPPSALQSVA
Assay [16] can be described thus: cytotoxicity in KRAS-transformed pancreatic duct cells, primary screen, cell-based, fluorescence, HTS (AID 431).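 Further: cell line used: HPDE-C7K.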 It is filed as functional. As to conditions: Homo sapiens.
The target of the next assay is Paired box protein Pax-8 (Homo sapiens, UniProt Q06710). Briefly: inhibitors of PAX8-driven TPO luciferase reporter, dose response, RMG-I cells, cherry-pick (AID 687027).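 Further: luciferase reporter driven by Pax8 target thyroperoxidase promoter measured by SteadyGlo luminescence.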 It is filed as functional, cell-based.
Sequence of Paired box protein Pax-8 (Q06710 whole entry): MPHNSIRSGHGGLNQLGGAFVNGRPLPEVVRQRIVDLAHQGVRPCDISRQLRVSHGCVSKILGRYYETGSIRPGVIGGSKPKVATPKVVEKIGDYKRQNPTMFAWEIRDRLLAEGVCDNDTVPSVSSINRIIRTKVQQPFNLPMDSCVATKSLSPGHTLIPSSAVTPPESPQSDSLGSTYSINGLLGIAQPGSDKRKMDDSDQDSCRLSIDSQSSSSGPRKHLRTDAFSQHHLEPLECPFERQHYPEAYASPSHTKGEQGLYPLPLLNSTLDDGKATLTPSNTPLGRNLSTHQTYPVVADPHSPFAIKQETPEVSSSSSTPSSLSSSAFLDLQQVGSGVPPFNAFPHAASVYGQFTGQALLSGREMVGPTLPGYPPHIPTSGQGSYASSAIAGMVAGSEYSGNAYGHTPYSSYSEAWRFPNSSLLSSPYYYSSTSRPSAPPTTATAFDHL
A short description of assay [17]: cytotoxicity in HPDE-C7 cells, cell-based, fluorescence, HTS (AID 430). It is filed as functional. The note with it: Homo sapiens.
The target in assay [18] is ALK tyrosine kinase receptor (Homo sapiens, UniProt Q9UM73). The assay is classed as functional.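 Further: ALK tested as one member of a kinase panel screen.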
Sequence of ALK tyrosine kinase receptor (Q9UM73 whole entry): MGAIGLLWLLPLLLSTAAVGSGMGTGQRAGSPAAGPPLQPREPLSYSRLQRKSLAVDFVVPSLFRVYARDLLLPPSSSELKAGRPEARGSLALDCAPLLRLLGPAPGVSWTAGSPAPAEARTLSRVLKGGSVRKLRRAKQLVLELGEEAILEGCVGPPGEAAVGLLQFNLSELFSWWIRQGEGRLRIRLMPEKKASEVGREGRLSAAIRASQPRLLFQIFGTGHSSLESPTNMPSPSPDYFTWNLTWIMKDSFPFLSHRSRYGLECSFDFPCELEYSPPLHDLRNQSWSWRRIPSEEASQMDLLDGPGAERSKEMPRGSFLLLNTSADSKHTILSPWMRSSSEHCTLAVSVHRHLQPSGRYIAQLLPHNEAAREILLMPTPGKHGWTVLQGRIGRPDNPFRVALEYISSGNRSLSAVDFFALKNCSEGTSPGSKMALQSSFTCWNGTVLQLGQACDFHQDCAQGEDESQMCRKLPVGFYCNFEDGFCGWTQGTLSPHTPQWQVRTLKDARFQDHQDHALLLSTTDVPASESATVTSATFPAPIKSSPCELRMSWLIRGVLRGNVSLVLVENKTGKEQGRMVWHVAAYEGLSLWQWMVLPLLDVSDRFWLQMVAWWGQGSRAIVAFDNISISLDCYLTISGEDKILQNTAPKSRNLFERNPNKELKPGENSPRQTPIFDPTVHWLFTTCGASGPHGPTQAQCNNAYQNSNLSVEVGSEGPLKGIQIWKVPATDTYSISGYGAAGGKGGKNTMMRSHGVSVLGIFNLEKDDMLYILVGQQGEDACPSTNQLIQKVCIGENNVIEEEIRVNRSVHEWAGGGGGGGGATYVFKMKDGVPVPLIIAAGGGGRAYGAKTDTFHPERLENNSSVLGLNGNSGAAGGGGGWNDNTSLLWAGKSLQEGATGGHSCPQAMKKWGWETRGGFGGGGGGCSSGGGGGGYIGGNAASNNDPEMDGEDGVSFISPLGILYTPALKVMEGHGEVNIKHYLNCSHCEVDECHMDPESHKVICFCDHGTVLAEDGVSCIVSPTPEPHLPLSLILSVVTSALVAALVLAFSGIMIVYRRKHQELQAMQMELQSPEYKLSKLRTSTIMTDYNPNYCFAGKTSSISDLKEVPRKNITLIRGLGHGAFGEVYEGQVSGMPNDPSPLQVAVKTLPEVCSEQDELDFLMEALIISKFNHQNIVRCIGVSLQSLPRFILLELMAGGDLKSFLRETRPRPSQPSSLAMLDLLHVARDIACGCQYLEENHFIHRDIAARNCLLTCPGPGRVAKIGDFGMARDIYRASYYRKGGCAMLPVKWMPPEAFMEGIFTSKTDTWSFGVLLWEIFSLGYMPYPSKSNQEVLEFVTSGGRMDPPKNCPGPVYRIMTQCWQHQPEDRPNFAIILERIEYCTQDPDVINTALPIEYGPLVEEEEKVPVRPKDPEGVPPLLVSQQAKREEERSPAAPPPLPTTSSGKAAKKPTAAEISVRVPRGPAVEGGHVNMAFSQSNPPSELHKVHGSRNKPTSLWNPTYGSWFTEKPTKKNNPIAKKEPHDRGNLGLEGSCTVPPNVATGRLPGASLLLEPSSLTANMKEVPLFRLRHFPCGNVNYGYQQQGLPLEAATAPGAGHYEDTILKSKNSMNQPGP

Structures are written as SMILES. Active and inactive are the calls of the source.

Sequence of Protein disulfide-isomerase (P07237 whole entry): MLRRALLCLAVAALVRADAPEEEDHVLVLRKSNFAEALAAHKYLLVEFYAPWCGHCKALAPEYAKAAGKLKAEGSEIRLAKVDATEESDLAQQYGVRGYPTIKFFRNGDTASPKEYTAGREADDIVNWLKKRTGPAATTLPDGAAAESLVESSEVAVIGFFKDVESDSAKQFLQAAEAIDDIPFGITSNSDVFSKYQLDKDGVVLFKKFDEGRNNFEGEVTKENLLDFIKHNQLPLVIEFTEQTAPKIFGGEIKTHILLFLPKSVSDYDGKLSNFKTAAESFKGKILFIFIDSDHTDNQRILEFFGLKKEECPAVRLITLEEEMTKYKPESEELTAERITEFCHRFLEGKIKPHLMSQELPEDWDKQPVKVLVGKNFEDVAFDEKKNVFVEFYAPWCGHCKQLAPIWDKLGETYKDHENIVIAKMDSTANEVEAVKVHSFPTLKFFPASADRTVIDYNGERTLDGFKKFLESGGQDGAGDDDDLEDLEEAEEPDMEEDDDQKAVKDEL
Sequence of Aurora kinase A (O14965 whole entry): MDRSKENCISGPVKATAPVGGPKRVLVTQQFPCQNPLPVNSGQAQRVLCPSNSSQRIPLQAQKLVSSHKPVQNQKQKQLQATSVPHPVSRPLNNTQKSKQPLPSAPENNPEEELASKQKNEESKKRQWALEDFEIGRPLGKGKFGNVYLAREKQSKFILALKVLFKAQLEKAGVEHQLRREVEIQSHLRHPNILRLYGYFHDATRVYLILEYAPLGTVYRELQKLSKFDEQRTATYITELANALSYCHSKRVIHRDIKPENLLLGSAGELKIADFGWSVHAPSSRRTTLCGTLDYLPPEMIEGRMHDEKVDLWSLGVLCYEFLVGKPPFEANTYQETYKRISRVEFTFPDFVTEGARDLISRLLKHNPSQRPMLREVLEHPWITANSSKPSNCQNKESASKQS

For `O=C(Nc1nnc(-c2ccccc2)s1)c1cc(S(=O)(=O)N2CCOCC2)c(Cl)cc1Cl`, the half-inhibitory concentration (IC50) at Melanocortin receptor 4 was > 2.39 µM (active); at Coagulation factor XII, > 50 µM (inactive); in assay [1], > 64.6 µM (inactive).

Consider `COc1cc(C(=O)OCC(=O)Nc2ccc(S(=O)(=O)N3CCCC3)cc2)cc(OC)c1OC`, for which the IC50 in [2] is 12.4 µM (inactive).

As for `Cn1cnnc1Sc1ccc(/C=C/C(=O)c2ccc(O)cc2)cc1[N+](=O)[O-]`, the concentration at half-maximal activity (AC50) was 8.44 µM (active) in assay [3] and 0.422 µM (active) in assay [4].

On to `CCN(CC)c1ccc2cc(-c3nc4ccccc4n3C)c(=O)oc2c1`, for which the IC50 in [5] is 1.14 µM (active); in the assay with CHO-K1, > 66.2 µM (inactive); at Orexin receptor type 2 [7] it was 32 µM (inactive); on Orexin receptor type 2 [8], > 50 µM (inactive); with CHO, 29.4 µM (inactive); in [10], 1.77 µM (active). Moreover, the IC50 on Beta Lactamase is 2.56 µM (active); in assay [11], > 49.8 µM (inactive). Also, the EC50 was < 0.12 µM (active) in the assay on BJ [6], 0.185 µM (active) in [9] and 0.345 µM (active) in the assay with BJ [12].

Consider `COc1ccccc1N(CCOc1ccccc1)S(=O)(=O)c1ccccc1`, for which the AC50 in [13] is 77.2 µM (active).

Regarding `CCOCCn1c(CN2CCN(c3ccc(F)cc3)CC2)nc2c1c(=O)n(C)c(=O)n2C`, the IC50 in assay [14] is 4.01 µM (active); in assay [15] it was 7.77 µM (active).

On to `CCc1cccc(NC(=O)Nc2ccc(-c3c(C)oc4ncnc(N)c34)cc2)c1`, for which the values for the Ki on Aurora kinase A and on Aurora kinase B were 0.158 µM (active) and 0.0158 µM (active), respectively.

Regarding `Cc1ccc(S(=O)(=O)CCC(=O)c2ccc(O)cc2O)cc1`, the EC50 in assay [16] is 8.8 µM (active); in [17], 9.12 µM (active). In addition, the AC50 is 4.59 µM (active) on Paired box protein Pax-8 and 15.6 µM (active) in assay [4].

Regarding `CCc1cccc(NC(=O)Nc2ccc(-c3csc4c(-c5cnn(C)c5)cnc(N)c34)cc2)c1`, the Ki is 0.00794 µM (active) on Aurora kinase A and 0.0251 µM (active) in [18].
